Results: the supplement of paper PMC10307832

What was measured:
Assay in all cases: relative viability (nuclei count vs DMSO), 5 days (fraction); higher = more cells survive
Bromopyruvate + OSI-027 = compound: C(C(=O)C(=O)O)Br [Bromopyruvate] + COc1cccc2cc(-c3nc([C@H]4CC[C@H](C(=O)O)CC4)n4ncnc(N)c34)[nH]c12 [OSI-027] (partner 0.5 µM)
Summary of the method: (§1)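 Medians of duplicate plates are given as relative viability. That measure is the nuclei count in treated wells divided by the count in vehicle wells. Counts were taken on 4× images of lung cancer cell lines in 1536-well plates, 5 days after pin-tool dosing the day after seeding with one drug alone or a fixed anchor-drug dose plus five library-drug doses (not always all listed) in √10 steps.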

[1] = compound: CC(O)(CS(=O)(=O)c1ccc(F)cc1)C(=O)Nc1ccc(C#N)c(C(F)(F)F)c1 [Bicalutamide] + C[C@]1(O)C[C@@H](c2nc(-c3ccc4ccc(-c5ccccc5)nc4c3)c3c(N)nccn32)C1 [Linsitinib] (partner 1 µM)
Summary of the method: as §1

[2] = compound: C(C(=O)C(=O)O)Br [Bromopyruvate] + O=C(CCCCCCC(=O)Nc1ccccc1)NO [Vorinostat] (partner 1 µM)
Summary of the method: as §1

[3] = compound: CC(O)(CS(=O)(=O)c1ccc(F)cc1)C(=O)Nc1ccc(C#N)c(C(F)(F)F)c1 [Bicalutamide] + CC1(C)CCC(c2ccc(Cl)cc2)=C(CN2CCN(c3ccc(C(=O)NS(=O)(=O)c4ccc(N[C@H](CCN5CCOCC5)CSc5ccccc5)c(S(=O)(=O)C(F)(F)F)c4)cc3)CC2)C1 [Navitoclax] (partner 0.5 µM)
Summary of the method: as §1

Row | Cell Line | relative viability (Bromopyruvate + OSI-027; first compound 1 µM) | relative viability (Bromopyruvate + OSI-027; first compound 3.162 µM) | relative viability (Bromopyruvate + OSI-027; first compound 10 µM) | relative viability (Bromopyruvate + OSI-027; first compound 31.62 µM) | relative viability (Bromopyruvate + OSI-027; first compound 100 µM) | relative viability ([1]; first compound 0.08 µM) | relative viability ([1]; first compound 0.253 µM) | relative viability ([1]; first compound 0.8 µM) | relative viability ([1]; first compound 2.53 µM) | relative viability ([2]; first compound 1 µM) | relative viability ([2]; first compound 3.162 µM) | relative viability ([2]; first compound 10 µM) | relative viability ([2]; first compound 31.62 µM) | relative viability ([2]; first compound 100 µM) | relative viability ([3]; first compound 0.08 µM) | relative viability ([3]; first compound 0.253 µM) | relative viability ([3]; first compound 0.8 µM) | relative viability ([3]; first compound 2.53 µM)
1 | HCC-44 | 0.616 | 0.634 | 0.483 | 0.596 | 0.483 | 0.67 | 0.664 | 0.691 | 0.788 | 1.12 | 1.04 | 1.07 | 1.1 | 1.13 | 0.921 | 0.949 | 0.924 | 0.982
2 | HCC-78 | 0.379 | 0.326 | 0.403 | 0.355 | 0.345 | 0.585 | 0.462 | 0.599 | 0.445 | 0.493 | 0.443 | 0.444 | 0.404 | 0.427 | 0.825 | 0.862 | 0.893 | 0.687
3 | HCC-366 | 0.836 | 1.05 | 0.812 | 0.979 | 1.01 | 0.659 | 0.541 | 0.905 | 0.624 | 0.375 | 0.368 | 0.408 | 0.307 | 0.227 | 1.08 | 1.03 | 1.17 | 1.02
4 | HCC-827 | 0.779 | 0.799 | 0.803 | 0.778 | 0.805 | 0.945 | 0.896 | 0.993 | 0.964 | 0.844 | 0.982 | 0.968 | 0.886 | 0.741 | 1.04 | 0.971 | 1.02 | 1.02
5 | IA-LM | – | – | – | – | – | 0.823 | 0.641 | 0.616 | 0.646 | 0.964 | 0.975 | 1.15 | 0.861 | 0.696 | 0.945 | 0.876 | 0.99 | 0.751
6 | LCLC-103H | 0.408 | 0.487 | 0.528 | 0.451 | 0.494 | 1.04 | 1.04 | 1.14 | 1.05 | 0.762 | 0.757 | 0.818 | 0.821 | 0.691 | – | – | – | –
7 | NCI-H358 | 0.813 | 0.758 | 0.956 | 0.769 | 0.797 | 0.763 | 0.65 | 0.841 | 0.786 | 0.77 | 0.607 | 0.626 | 0.541 | 0.505 | – | – | – | –
8 | NCI-H522 | 0.74 | 0.715 | 0.684 | 0.718 | 0.706 | – | – | – | – | 0.93 | 1.02 | 1.02 | 0.799 | 0.763 | – | – | – | –
9 | NCI-H650 | 0.584 | 0.545 | 0.575 | 0.501 | 0.59 | 0.906 | 1.07 | 1.1 | 0.489 | 0.438 | 0.487 | 0.411 | 0.441 | 0.392 | – | – | – | –
10 | NCI-H661 | 0.719 | 0.67 | 0.685 | 0.64 | 0.749 | 0.538 | 0.63 | 0.612 | 0.61 | 0.767 | 0.798 | 0.779 | 0.712 | 0.712 | – | – | – | –
11 | NCI-H1299 | – | – | – | – | – | 1.04 | 1.03 | 1.17 | 1.01 | – | – | – | – | – | 1.02 | 1.04 | 1.03 | 1.04
12 | NCI-H1563 | 0.747 | 0.75 | 0.758 | 0.77 | 0.763 | 1.28 | 1.2 | 1.12 | 1.07 | – | – | – | – | – | – | – | – | –
13 | NCI-H1623 | 0.495 | 0.428 | 0.46 | 0.383 | 0.399 | – | – | – | – | – | – | – | – | – | – | – | – | –
14 | NCI-H1648 | 0.263 | 0.263 | 0.251 | 0.25 | 0.259 | – | – | – | – | 0.324 | 0.566 | 0.563 | 0.766 | 0.314 | – | – | – | –
15 | NCI-H1650 | 0.642 | 0.592 | 0.669 | 0.757 | 0.464 | – | – | – | – | 0.549 | 0.388 | 0.505 | 0.54 | 0.304 | 1.31 | 1.19 | 1.16 | 1.22
16 | NCI-H1703 | – | – | – | – | – | 0.815 | 0.79 | 0.833 | 0.495 | – | – | – | – | – | 0.998 | 0.985 | 1.45 | 0.484
17 | NCI-H1792 | 0.798 | 0.79 | 0.782 | – | 0.649 | 0.585 | 0.412 | 0.549 | 0.48 | – | – | – | – | – | 0.5 | 0.619 | 0.77 | 0.674
18 | NCI-H2170 | 0.469 | 0.686 | 0.769 | 0.761 | 0.743 | – | – | – | – | 0.911 | 0.853 | 0.79 | 0.802 | 0.705 | 0.553 | 0.506 | 0.661 | 0.591
19 | NCI-H2342 | 0.552 | 0.603 | 0.542 | 0.545 | 0.497 | – | – | – | – | 0.807 | 0.806 | 0.7 | 0.622 | 0.684 | – | – | – | –
20 | SW 900 | 0.589 | 0.543 | 0.558 | 0.562 | 0.526 | – | – | – | – | 0.393 | 0.487 | 0.559 | 0.377 | 0.476 | – | – | – | –
